test: Binary supramolecular self-assembly systems of polymer and target: guest concentration over incubation time (Comparative Example 2); type: physicochemical; settings: binary system with 0.5% polymer 101; incubation 0.5 h
Experimental: Experiments were conducted according to the steps in Comparative Example 1, and quantitative analysis was carried out using the analytical method for each target to investigate the regulation ability […] stacking.

| Concentration of the target in the solution measured after different incubation time [ng/mL] | Structure (SMILES) |
| --- | --- |
| 135300 | CCOc1nc2cccc(C(=O)OC(C)OC(=O)OC3CCCCC3)c2n1Cc1ccc(-c2ccccc2-c2nnn[nH]2)cc1 (centres unmarked) [Candesartan Cilexetil, candesartan cilexetil] |
| 13200 | O=C1[C@@H]2[C@H]3CC[C@H](C3)[C@@H]2C(=O)N1C[C@@H]1CCCC[C@H]1CN1CCN(c2nsc3ccccc23)CC1 [Lurasidone, lurasidone] |

same assay, conditions: binary system with 0.5% polymer 101; incubation 3 h

| Concentration of the target in the solution measured after different incubation time [ng/mL] | Structure (SMILES) |
| --- | --- |
| 34500 | CCOc1nc2cccc(C(=O)OC(C)OC(=O)OC3CCCCC3)c2n1Cc1ccc(-c2ccccc2-c2nnn[nH]2)cc1 (centres unmarked) [Candesartan Cilexetil, candesartan cilexetil] |
| 13500 | O=C1[C@@H]2[C@H]3CC[C@H](C3)[C@@H]2C(=O)N1C[C@@H]1CCCC[C@H]1CN1CCN(c2nsc3ccccc23)CC1 [Lurasidone, lurasidone] |

same assay, conditions: binary system with 0.5% polymer 101; incubation 6 h

| Concentration of the target in the solution measured after different incubation time [ng/mL] | Structure (SMILES) |
| --- | --- |
| 18400 | CCOc1nc2cccc(C(=O)OC(C)OC(=O)OC3CCCCC3)c2n1Cc1ccc(-c2ccccc2-c2nnn[nH]2)cc1 (centres unmarked) [Candesartan Cilexetil, candesartan cilexetil] |
| 9400 | O=C1[C@@H]2[C@H]3CC[C@H](C3)[C@@H]2C(=O)N1C[C@@H]1CCCC[C@H]1CN1CCN(c2nsc3ccccc23)CC1 [Lurasidone, lurasidone] |

same assay, conditions: binary system with 0.5% polymer 102; incubation 0.5 h

| Concentration of the target in the solution measured after different incubation time [ng/mL] | Structure (SMILES) |
| --- | --- |
| 47000 | CCOc1nc2cccc(C(=O)OC(C)OC(=O)OC3CCCCC3)c2n1Cc1ccc(-c2ccccc2-c2nnn[nH]2)cc1 (centres unmarked) [Candesartan Cilexetil, candesartan cilexetil] |
| 15300 | O=C1[C@@H]2[C@H]3CC[C@H](C3)[C@@H]2C(=O)N1C[C@@H]1CCCC[C@H]1CN1CCN(c2nsc3ccccc23)CC1 [Lurasidone, lurasidone] |

same assay, conditions: binary system with 0.5% polymer 102; incubation 3 h

| Concentration of the target in the solution measured after different incubation time [ng/mL] | Structure (SMILES) |
| --- | --- |
| 43800 | CCOc1nc2cccc(C(=O)OC(C)OC(=O)OC3CCCCC3)c2n1Cc1ccc(-c2ccccc2-c2nnn[nH]2)cc1 (centres unmarked) [Candesartan Cilexetil, candesartan cilexetil] |
| 12700 | O=C1[C@@H]2[C@H]3CC[C@H](C3)[C@@H]2C(=O)N1C[C@@H]1CCCC[C@H]1CN1CCN(c2nsc3ccccc23)CC1 [Lurasidone, lurasidone] |

same assay, conditions: binary system with 0.5% polymer 102; incubation 6 h

| Concentration of the target in the solution measured after different incubation time [ng/mL] | Structure (SMILES) |
| --- | --- |
| 4900 | CCOc1nc2cccc(C(=O)OC(C)OC(=O)OC3CCCCC3)c2n1Cc1ccc(-c2ccccc2-c2nnn[nH]2)cc1 (centres unmarked) [Candesartan Cilexetil, candesartan cilexetil] |
| 13400 | O=C1[C@@H]2[C@H]3CC[C@H](C3)[C@@H]2C(=O)N1C[C@@H]1CCCC[C@H]1CN1CCN(c2nsc3ccccc23)CC1 [Lurasidone, lurasidone] |

same assay, conditions: binary system with 0.5% polymer 103; incubation 0.5 h

| Concentration of the target in the solution measured after different incubation time [ng/mL] | Structure (SMILES) |
| --- | --- |
| 91600 | CCOc1nc2cccc(C(=O)OC(C)OC(=O)OC3CCCCC3)c2n1Cc1ccc(-c2ccccc2-c2nnn[nH]2)cc1 (centres unmarked) [Candesartan Cilexetil, candesartan cilexetil] |
| 7000 | O=C1[C@@H]2[C@H]3CC[C@H](C3)[C@@H]2C(=O)N1C[C@@H]1CCCC[C@H]1CN1CCN(c2nsc3ccccc23)CC1 [Lurasidone, lurasidone] |

same assay, conditions: binary system with 0.5% polymer 103; incubation 3 h

| Concentration of the target in the solution measured after different incubation time [ng/mL] | Structure (SMILES) |
| --- | --- |
| 110500 | CCOc1nc2cccc(C(=O)OC(C)OC(=O)OC3CCCCC3)c2n1Cc1ccc(-c2ccccc2-c2nnn[nH]2)cc1 (centres unmarked) [Candesartan Cilexetil, candesartan cilexetil] |
| 5200 | O=C1[C@@H]2[C@H]3CC[C@H](C3)[C@@H]2C(=O)N1C[C@@H]1CCCC[C@H]1CN1CCN(c2nsc3ccccc23)CC1 [Lurasidone, lurasidone] |

same assay, conditions: binary system with 0.5% polymer 103; incubation 6 h

| Concentration of the target in the solution measured after different incubation time [ng/mL] | Structure (SMILES) |
| --- | --- |
| 120700 | CCOc1nc2cccc(C(=O)OC(C)OC(=O)OC3CCCCC3)c2n1Cc1ccc(-c2ccccc2-c2nnn[nH]2)cc1 (centres unmarked) [Candesartan Cilexetil, candesartan cilexetil] |
| 4000 | O=C1[C@@H]2[C@H]3CC[C@H](C3)[C@@H]2C(=O)N1C[C@@H]1CCCC[C@H]1CN1CCN(c2nsc3ccccc23)CC1 [Lurasidone, lurasidone] |

same assay, conditions: binary system with 0.5% polymer 106; incubation 0.5 h

| Concentration of the target in the solution measured after different incubation time [ng/mL] | Structure (SMILES) |
| --- | --- |
| 103100 | CCOc1nc2cccc(C(=O)OC(C)OC(=O)OC3CCCCC3)c2n1Cc1ccc(-c2ccccc2-c2nnn[nH]2)cc1 (centres unmarked) [Candesartan Cilexetil, candesartan cilexetil] |
| 4100 | O=C1[C@@H]2[C@H]3CC[C@H](C3)[C@@H]2C(=O)N1C[C@@H]1CCCC[C@H]1CN1CCN(c2nsc3ccccc23)CC1 [Lurasidone, lurasidone] |

same assay, conditions: binary system with 0.5% polymer 106; incubation 3 h

| Concentration of the target in the solution measured after different incubation time [ng/mL] | Structure (SMILES) |
| --- | --- |
| 16200 | CCOc1nc2cccc(C(=O)OC(C)OC(=O)OC3CCCCC3)c2n1Cc1ccc(-c2ccccc2-c2nnn[nH]2)cc1 (centres unmarked) [Candesartan Cilexetil, candesartan cilexetil] |
| 3100 | O=C1[C@@H]2[C@H]3CC[C@H](C3)[C@@H]2C(=O)N1C[C@@H]1CCCC[C@H]1CN1CCN(c2nsc3ccccc23)CC1 [Lurasidone, lurasidone] |

same assay, conditions: binary system with 0.5% polymer 106; incubation 6 h

| Concentration of the target in the solution measured after different incubation time [ng/mL] | Structure (SMILES) |
| --- | --- |
| 18800 | CCOc1nc2cccc(C(=O)OC(C)OC(=O)OC3CCCCC3)c2n1Cc1ccc(-c2ccccc2-c2nnn[nH]2)cc1 (centres unmarked) [Candesartan Cilexetil, candesartan cilexetil] |
| 1800 | O=C1[C@@H]2[C@H]3CC[C@H](C3)[C@@H]2C(=O)N1C[C@@H]1CCCC[C@H]1CN1CCN(c2nsc3ccccc23)CC1 [Lurasidone, lurasidone] |

same assay, conditions: binary system with 0.5% polymer 107; incubation 0.5 h

| Concentration of the target in the solution measured after different incubation time [ng/mL] | Structure (SMILES) |
| --- | --- |
| 189100 | CCOc1nc2cccc(C(=O)OC(C)OC(=O)OC3CCCCC3)c2n1Cc1ccc(-c2ccccc2-c2nnn[nH]2)cc1 (centres unmarked) [Candesartan Cilexetil, candesartan cilexetil] |
| 3200 | O=C1[C@@H]2[C@H]3CC[C@H](C3)[C@@H]2C(=O)N1C[C@@H]1CCCC[C@H]1CN1CCN(c2nsc3ccccc23)CC1 [Lurasidone, lurasidone] |

same assay, conditions: binary system with 0.5% polymer 107; incubation 3 h

| Concentration of the target in the solution measured after different incubation time [ng/mL] | Structure (SMILES) |
| --- | --- |
| 33700 | CCOc1nc2cccc(C(=O)OC(C)OC(=O)OC3CCCCC3)c2n1Cc1ccc(-c2ccccc2-c2nnn[nH]2)cc1 (centres unmarked) [Candesartan Cilexetil, candesartan cilexetil] |
| 2400 | O=C1[C@@H]2[C@H]3CC[C@H](C3)[C@@H]2C(=O)N1C[C@@H]1CCCC[C@H]1CN1CCN(c2nsc3ccccc23)CC1 [Lurasidone, lurasidone] |

same assay, conditions: binary system with 0.5% polymer 107; incubation 6 h

| Concentration of the target in the solution measured after different incubation time [ng/mL] | Structure (SMILES) |
| --- | --- |
| 28800 | CCOc1nc2cccc(C(=O)OC(C)OC(=O)OC3CCCCC3)c2n1Cc1ccc(-c2ccccc2-c2nnn[nH]2)cc1 (centres unmarked) [Candesartan Cilexetil, candesartan cilexetil] |
| 1700 | O=C1[C@@H]2[C@H]3CC[C@H](C3)[C@@H]2C(=O)N1C[C@@H]1CCCC[C@H]1CN1CCN(c2nsc3ccccc23)CC1 [Lurasidone, lurasidone] |

same assay, conditions: binary system with 0.5% polymer 110; incubation 0.5 h

| Concentration of the target in the solution measured after different incubation time [ng/mL] | Structure (SMILES) |
| --- | --- |
| 4700 | CCOc1nc2cccc(C(=O)OC(C)OC(=O)OC3CCCCC3)c2n1Cc1ccc(-c2ccccc2-c2nnn[nH]2)cc1 (centres unmarked) [Candesartan Cilexetil, candesartan cilexetil] |

same assay, conditions: binary system with 0.5% polymer 110; incubation 3 h

| Concentration of the target in the solution measured after different incubation time [ng/mL] | Structure (SMILES) |
| --- | --- |
| 18300 | CCOc1nc2cccc(C(=O)OC(C)OC(=O)OC3CCCCC3)c2n1Cc1ccc(-c2ccccc2-c2nnn[nH]2)cc1 (centres unmarked) [Candesartan Cilexetil, candesartan cilexetil] |

same assay, conditions: binary system with 0.5% polymer 110; incubation 6 h

| Concentration of the target in the solution measured after different incubation time [ng/mL] | Structure (SMILES) |
| --- | --- |
| 3300 | CCOc1nc2cccc(C(=O)OC(C)OC(=O)OC3CCCCC3)c2n1Cc1ccc(-c2ccccc2-c2nnn[nH]2)cc1 (centres unmarked) [Candesartan Cilexetil, candesartan cilexetil] |

test: not given; settings: cited from earlier work

| Structure (SMILES) | LogD7.4 or Log P |
| --- | --- |
| CCOc1nc2cccc(C(=O)OC(C)OC(=O)OC3CCCCC3)c2n1Cc1ccc(-c2ccccc2-c2nnn[nH]2)cc1 (centres unmarked) [Candesartan Cilexetil, candesartan cilexetil] | 5.31 |
| O=C1[C@@H]2[C@H]3CC[C@H](C3)[C@@H]2C(=O)N1C[C@@H]1CCCC[C@H]1CN1CCN(c2nsc3ccccc23)CC1 [Lurasidone, lurasidone] | 3.43 |

test: Guest molecule concentration after incubation in initial medium without polymer (Comparative Example 1); type: physicochemical; settings: 0.5 h; 37° C.; pH 4.5 acetate buffer
Experimental: pH 2.0 hydrochloric acid, pH 4.5 acetate, and pH 6.5, pH 6.8, or pH 7.4 phosphate buffer solutions were prepared. The selection of each initial medium followed the principle that the solubility in the initial medium of the selected targets (or active ingredients) should low enough, but should meet the detection sensitivity and accuracy requirements of the corresponding analytical methods. Each buffer as initial media was placed in a 50 ml test tube with a stopper, shaken in a constant temperature air shaker at 37° C.±0.5° C., with an amplitude of 200 rpm, and incubated for 1 hour. […] Samples were taken at 0.5 h, 3 h and 6 h after incubation, centrifuged at 37° C., 13000 rpm for 5 minutes, and the supernatant was diluted at least 10 times with the mobile phase under the target analyte analytical method, filtered, the initial filtrate was discarded, and the continued filtrate was used as the test solution for injection analysis. The corresponding HPLC method under each target object item in Table 8 was used to determine the content of each target substance. When the solubility of the target in the initial medium is below the quantitative limit of the analytical method, a small amount of surfactant, such as sodium dodecyl sulfate (SDS), Tween20, or Tween80, can be added appropriately.
The above targets were incubated at 37° C.±0.5° C. for different time in an initial medium without any polymer. Each solid target formed by molecular stacking was removed by centrifugation, and the supernatant was analyzed using the HPLC method under each target item (see Table 8). The theoretical addition concentration of each target when its supramolecular self-assembly system was built was determined by its maximum dose in clinical use.

| Concentration of guest molecule measured after different incubated time [ng/mL] | Structure (SMILES) |
| --- | --- |
| 3800 | CCOc1nc2cccc(C(=O)OC(C)OC(=O)OC3CCCCC3)c2n1Cc1ccc(-c2ccccc2-c2nnn[nH]2)cc1 (centres unmarked) [Candesartan Cilexetil, candesartan cilexetil] |

same assay, conditions: 3 h; 37° C.; pH 4.5 acetate buffer

| Concentration of guest molecule measured after different incubated time [ng/mL] | Structure (SMILES) |
| --- | --- |
| 2100 | CCOc1nc2cccc(C(=O)OC(C)OC(=O)OC3CCCCC3)c2n1Cc1ccc(-c2ccccc2-c2nnn[nH]2)cc1 (centres unmarked) [Candesartan Cilexetil, candesartan cilexetil] |

same assay, conditions: 6 h; 37° C.; pH 4.5 acetate buffer

| Concentration of guest molecule measured after different incubated time [ng/mL] | Structure (SMILES) |
| --- | --- |
| 2000 | CCOc1nc2cccc(C(=O)OC(C)OC(=O)OC3CCCCC3)c2n1Cc1ccc(-c2ccccc2-c2nnn[nH]2)cc1 (centres unmarked) [Candesartan Cilexetil, candesartan cilexetil] |
